From PMC8156151 (The European Respiratory Journal, 2021)
Like-named read-outs stand apart in the source and are kept apart here.

Experiments:
Type in all cases: in vivo, human
[1] = test system: patients with IPF; assay: Safety and tolerability (TEAEs), part 2, once-daily inhaled dose for 14 days
Excerpt: Following completion of dosing for the final subject in each dosing cohort, an interim dose review meeting was held with a safety committee consisting of the principal investigator, medical monitor, pharmacokineticist and statistician to review the safety, tolerability and PK data (study design schematic shown in figure 1). The study statistician and pharmacokineticist were unblinded at the end of each cohort in order to conduct the analyses required for dose review decisions. The primary end-point was the safety and tolerability of single or multiple doses of TD139 in healthy subjects or IPF patients, respectively.

[2] = test system: MMP-7; assay: Plasma biomarker MMP-7; settings: for MMP-7 raw data, Mean (SD) / MMP-7 least square means % baseline±SEM: IPF patients
Procedure: (§1) All patients, investigators, sites and study sponsor personnel were blinded to the study group assignments throughout the study. Patients underwent study-specific assessments on days 2, 3, 7, 14 and 15, and a post-study assessment was carried out 26–30 days after the last day of the study period. Assessments included vital signs (supine blood pressure, pulse, oxygen saturation, oral temperature and respiratory rate), spirometry, 12-lead ECG, physical examination, laboratory safety screen (haematology, biochemistry, urinalysis and urinary drugs of abuse screen) and blood sampling for PK measurements. All adverse events and concomitant medications were recorded from the time of the screening visit until the post-study follow-up visit. BAL was performed at day −1 (24 h before the first dose) and at day 14 (2 h after the last dose). The BAL procedure was performed as per international guidelines. Briefly, 240 mL of 0.9% saline at room temperature was instilled in 40 mL aliquots into the right middle lobe and aspirated by suction after each aliquot.
(§2) BAL cells were separated from fluid by centrifugation, and cells were collected, stained with antibodies (supplementary material) and then fixed before analysis using a LSR Fortessa flow cytometer (Becton Dickinson, Franklin Lakes, NJ, USA). Data were analysed using FlowJo software (Tree Star, Ashland, OR, USA). Macrophages were identified as having high side scatter properties and human leukocyte antigen-DR positivity. Gal-3 expression (mean fluorescence intensity) was determined from the macrophage gate (supplementary figures S1 and S2). […] Samples were analysed by magnetic Luminex assay (R&D Systems, Minneapolis, MN, USA) or ELISA.
(§3) For part 2 of the study, placebos were combined from the three dose-specific cohorts into a pooled control group (n=9). For alveolar macrophage Gal-3 expression and the plasma biomarkers, ANCOVA was performed for percentage of baseline ((day 14/day 1)×100). The ANCOVA model included effects for treatment group and baseline (day 1) value. […] An additional analysis including dose as a continuous covariate was also performed. The Pearson correlation coefficient (r) and associated p-value were calculated for percentage of baseline and day 14 values between plasma biomarkers and alveolar macrophage Gal-3 expression. […] The analysis is exploratory and there was no pre-planned adjustment for multiple testing; the study was not powered for this. Alveolar macrophage Gal-3 expression was considered the primary exploratory analysis with the pre-selected biomarkers secondary. A Bonferroni correction for multiple testing of the secondary end-points comparing the 10 mg group with placebo gives a critical value of 0.0063. Data are presented as the difference in least square means with 95% confidence interval and p-value unless otherwise stated. All analyses were performed using SAS version 9.4 (SAS Institute, Cary, NC, USA). […]

[3] = test system: Gal-3; settings: for Galectin-3 raw data, Mean (SD) / Gal-3 least square means % baseline±SEM: IPF patients; for Galectin-3 raw data, Mean (SD): Day 14; for Gal-3 least square means % baseline±SEM: day 14
Procedure: as §1, with “BAL was performed at day −1 (24 h before the first dose) and at day 14 (2 h after the last dose).” left out
as §2
as §3, with “Data are presented as the difference in least square means with 95% confidence interval and p-value unless otherwise stated.” left out
Plasma pharmacodynamic biomarkers
The following pre-specified biomarkers were evaluated in samples of plasma based on the basis

[4] = IPF patients, inhaled 0.3 mg once daily 14 days
[5] = IPF patients, inhaled 3 mg once daily 14 days
[6] = IPF patients, inhaled 10 mg once daily 14 days

OC[C@H]1O[C@@H](S[C@@H]2O[C@H](CO)[C@H](O)[C@H](n3cc(-c4cccc(F)c4)nn3)[C@H]2O)[C@H](O)[C@@H](n2cc(-c3cccc(F)c3)nn2)[C@H]1O [TD139]
Subjects reporting ≥1 TEAE: Serious TEAE [1, 4]: 0 n (%)
Subjects reporting ≥1 TEAE: TEAE [1, 4]: 4 (80.0) n (%)
Subjects reporting ≥1 TEAE: TEAE leading to withdrawal [1, 4]: 0 n (%)
Subjects with TEAE by relationship to study IMP: Almost definite [1, 4]: 0 n (%)
Subjects with TEAE by relationship to study IMP: Possible [1, 4]: 1 (20.0) n (%)
Subjects with TEAE by relationship to study IMP: Probable [1, 4]: 0 n (%)
Subjects with TEAE by relationship to study IMP: Unlikely [1, 4]: 1 (20.0) n (%)
Subjects with TEAE by relationship to study IMP: Unrelated [1, 4]: 2 (40.0) n (%)
Subjects with TEAE by severity: Mild [1, 4]: 2 (40.0) n (%)
Subjects with TEAE by severity: Moderate [1, 4]: 2 (40.0) n (%)
Subjects with TEAE by severity: Severe [1, 4]: 0 n (%)
TEAEs [1, 4]: 9 n
Subjects reporting ≥1 TEAE: Serious TEAE [1, 5]: 0 n (%)
Subjects reporting ≥1 TEAE: TEAE [1, 5]: 5 (100.0) n (%)
Subjects reporting ≥1 TEAE: TEAE leading to withdrawal [1, 5]: 0 n (%)
Subjects with TEAE by relationship to study IMP: Almost definite [1, 5]: 0 n (%)
Subjects with TEAE by relationship to study IMP: Possible [1, 5]: 1 (20.0) n (%)
Subjects with TEAE by relationship to study IMP: Probable [1, 5]: 0 n (%)
Subjects with TEAE by relationship to study IMP: Unlikely [1, 5]: 1 (20.0) n (%)
Subjects with TEAE by relationship to study IMP: Unrelated [1, 5]: 3 (60.0) n (%)
Subjects with TEAE by severity: Mild [1, 5]: 4 (80.0) n (%)
Subjects with TEAE by severity: Moderate [1, 5]: 1 (20.0) n (%)
Subjects with TEAE by severity: Severe [1, 5]: 0 n (%)
TEAEs [1, 5]: 10 n
Subjects reporting ≥1 TEAE: Serious TEAE [1, 6]: 1 (20.0) n (%)
Subjects reporting ≥1 TEAE: TEAE [1, 6]: 4 (80.0) n (%)
Subjects reporting ≥1 TEAE: TEAE leading to withdrawal [1, 6]: 0 n (%)
Subjects with TEAE by relationship to study IMP: Almost definite [1, 6]: 0 n (%)
Subjects with TEAE by relationship to study IMP: Possible [1, 6]: 0 n (%)
Subjects with TEAE by relationship to study IMP: Probable [1, 6]: 0 n (%)
Subjects with TEAE by relationship to study IMP: Unlikely [1, 6]: 2 (40.0) n (%)
Subjects with TEAE by relationship to study IMP: Unrelated [1, 6]: 2 (40.0) n (%)
Subjects with TEAE by severity: Mild [1, 6]: 1 (20.0) n (%)
Subjects with TEAE by severity: Moderate [1, 6]: 2 (40.0) n (%)
Subjects with TEAE by severity: Severe [1, 6]: 1 (20.0) n (%)
TEAEs [1, 6]: 13 n
safety and tolerability ([1]; IPF patients, multiple inhaled doses up to 10 mg): safe and well tolerated
TEAE profile, biochemistry, haematology, vital signs or 12-lead ECG data ([1]; part 2, IPF patients): no treatment- or dose-related trends observed
patients with a TEAE considered possibly related to the study drug ([1]; part 2, diarrhoea and dysgeusia/oropharyngeal pain): two
MMP-7 difference in least square means % baseline (95% CI) ([2]; 10 mg vs placebo, ANCOVA): −82.0 (−237.9–73.9) % baseline
MMP-7 raw data, Mean (SD) ([2]; Day 14, 0.3 mg): 447.6 (205.21) pg/ml
MMP-7 raw data, Mean (SD) ([2]; Day 14, 3 mg): 1849.2 (2244.12) pg/ml
MMP-7 raw data, Mean (SD) ([2]; Day 14, 10 mg): 1130.6 (939.62) pg/ml
MMP-7 least square means % baseline±SEM ([2]; day 14, 0.3 mg once daily): 79.3±59.2 % baseline
MMP-7 least square means % baseline±SEM ([2]; day 14, 3 mg once daily): 82.3±58.4 % baseline
MMP-7 least square means % baseline±SEM ([2]; day 14, 10 mg once daily): 84.4±58.7 % baseline
circulating Gal-3 plasma concentrations (percentage of baseline), difference versus placebo ([3]; 10 mg dose group): −67.63%
Galectin-3 raw data, Mean (SD) ([3]; plasma, 0.3 mg): 13290.4 (4951.24) pg/ml
Galectin-3 raw data, Mean (SD) ([3]; plasma, 3 mg): 9298.5 (3499.54) pg/ml
Galectin-3 raw data, Mean (SD) ([3]; plasma, 10 mg): 4486.3 (697.25) pg/ml
Gal-3 least square means % baseline±SEM ([3]; plasma, 0.3 mg once daily): 113.9±21.2 % baseline
Gal-3 least square means % baseline±SEM ([3]; plasma, 3 mg once daily): 119.5±21.3 % baseline
Gal-3 least square means % baseline±SEM ([3]; plasma, 10 mg once daily): 53.4±23.5 % baseline
Gal-3 difference in least square means % baseline (95% CI) ([3]; plasma, 10 mg vs placebo, ANCOVA): −67.6 (−126.9– −8.4) % baseline
